# Experimental data from PubChem BioAssay (NCI).
#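 96-well plates; 48 h exposure; 5 concentrations. Endpoints by linear interpolation between flanking doses. Not reached: highest tested concentration assigned. GI50 = concentration required for 50% inhibition of growth. TGI is the concentration that stops growth completely.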
# Assays:
# Experiment in all cases: inhibition of tumour cell growth, NCI panel, 48 h
# SNB-78 CNS = test system: SNB-78 CNS
# SF-295 CNS = test system: SF-295 CNS
# SK-MEL-2 melanoma = test system: SK-MEL-2 melanoma
# LOX IMVI melanoma = test system: LOX IMVI melanoma
# HOP-62 NSCLC = test system: HOP-62 NSCLC
# NCI-H460 lung = test system: NCI-H460 lung
# DLD-1 colon = test system: DLD-1 colon
# CCRF-CEM leukemia = test system: CCRF-CEM leukemia
# SN12C renal = test system: SN12C renal
# NCI-H522 lung = test system: NCI-H522 lung
# BT-549 breast = test system: BT-549 breast
Structure (SMILES),TGI (SNB-78 CNS) [µM],TGI (SF-295 CNS) [µM],TGI (SK-MEL-2 melanoma) [µM],TGI (LOX IMVI melanoma) [µM],TGI (HOP-62 NSCLC) [µM],TGI (NCI-H460 lung) [µM],TGI (DLD-1 colon) [µM],TGI (CCRF-CEM leukemia) [µM],TGI (SN12C renal) [µM],TGI (NCI-H522 lung) [µM],TGI (BT-549 breast) [µM],GI50 (SF-295 CNS) [µM],GI50 (SK-MEL-2 melanoma) [µM],GI50 (LOX IMVI melanoma) [µM],GI50 (HOP-62 NSCLC) [µM],GI50 (NCI-H460 lung) [µM],GI50 (CCRF-CEM leukemia) [µM],GI50 (SN12C renal) [µM],GI50 (BT-549 breast) [µM],GI50 (NCI-H522 lung) [µM]
O=C1NC(=S)NC(=O)C1=Cc1ccc2ccccc2n1,> 100,> 100,> 100,> 100,> 100,> 100,> 100,> 100,> 100,> 100,–,–,–,–,–,–,–,–,–,–
COc1ccc(N2C(=O)C3c4[nH]c5ccccc5c4C4CCC(C(C)(C)C)CC4C3C2=O)cc1OC (stereo not given),56.4,42.6,–,–,34.8,–,39.9,98.5,48.5,33.4,–,–,–,–,–,–,–,–,–,–
COc1cccc(/C=N/n2c(Cc3ccc(Cl)cc3)n[nH]c2=O)c1,–,35.4,58.6,> 100,43.9,> 100,–,> 100,71,50.6,57.1,–,–,–,–,–,–,–,–,–
Cc1ccc(CC(=O)Nc2ccc(NC(=O)CNC(=O)/C=C/c3ccc(-c4ccccc4)cc3)cc2C(=O)c2ccccc2)cc1,–,4.86,35.3,13.4,6.95,11.1,–,17.1,9.93,18.4,24,–,–,–,–,–,–,–,–,–
COC1CCC(n2c([C@@H]3CCCC(=O)N3c3ccc(F)c(F)c3)nc3cc(-c4c(C)noc4C)ccc32)CC1 (stereo not given in full),–,29,35.5,16.9,> 100,> 100,–,57.7,29.6,19.8,27.2,6.72,11.4,4.13,4.46,26.3,4.66,10.3,10.3,2.93
Cc1nc2ccccc2cc1C[N+]12CN3CN(CN(C3)C1)C2,–,54.6,39.8,32.8,69.9,45.1,–,23.7,48.1,38.2,40,–,–,–,–,–,–,–,–,–
CC(C)(Oc1ccc(C(=O)c2ccc(Cl)cc2)cc1Cl)C(=O)N1CCN(c2ccccc2)CC1,> 100,> 100,> 100,> 100,> 100,> 100,> 100,> 100,–,> 100,–,–,–,–,–,–,–,–,–,–
COc1cc(C(CC(OC)OC)=C(C#N)C#N)cc(OC)c1OC,> 100,62.9,49.4,25.1,–,23.4,13.7,59.1,> 100,32.9,–,–,–,–,–,–,–,–,–,–
COc1c(Cl)c(Cl)c(OC)c2c1C(=O)C=CC2=O,26.7,48.8,33.9,30.2,–,> 100,29.5,53.5,62.2,31.7,–,–,–,–,–,–,–,–,–,–
Cc1cnc2[nH]c(-c3cccc(Cl)c3)cc(=O)c2c1,–,1.64,97.4,11.6,3.45,> 58.2,–,> 100,> 100,15,> 100,–,–,–,–,–,–,–,–,–
CC(C)(C)OC(=O)N1C/C=C\C(=O)C2(OCCO2)c2ccccc21,–,73.9,68.5,32.6,> 100,50.5,–,57,88.9,78.8,51.4,–,–,–,–,–,–,–,–,–
CC(=O)N1C(OCc2ccccc2)CCN1c1ccccc1 (stereo not given),–,> 10,> 10,> 10,> 10,> 10,–,> 10,> 10,> 10,> 10,–,–,–,–,–,–,–,–,–
CCOC(=O)C1=CN(C(=O)c2ccccc2)CCC1Cc1ccccc1 (stereo not given),–,> 100,35.9,34.4,> 100,44.9,–,54.5,57.4,40.5,85.9,–,–,–,–,–,–,–,–,–
Cc1oc2c(C)c3oc(=O)cc(C)c3cc2c1CN,> 100,> 100,> 100,41.9,> 100,> 100,> 100,> 100,> 100,> 100,–,–,–,–,–,–,–,–,–,–
CCOC(=O)CN(Cc1ccccc1)Cc1c(C(=O)c2ccccc2)c2ccccc2n1C(=O)c1ccccc1,> 100,> 100,> 100,> 100,> 100,> 100,> 100,> 100,> 100,> 100,–,–,–,–,–,–,–,–,–,–
O=C(CCC(=O)OCC1OC(O)(CC2OC(CO)C(O)C(O)C2O)C(O)C1O)OCc1ccccc1 (stereo not given),–,> 100,> 100,> 100,> 100,> 100,–,> 100,> 100,> 100,> 100,–,–,–,–,–,–,–,–,–

Structure (SMILES),TGI (SNB-78 CNS) [µM],TGI (SF-295 CNS) [µM],TGI (SK-MEL-2 melanoma) [µM],TGI (LOX IMVI melanoma) [µM],TGI (HOP-62 NSCLC) [µM],TGI (NCI-H460 lung) [µM],TGI (DLD-1 colon) [µM],TGI (CCRF-CEM leukemia) [µM],TGI (SN12C renal) [µM],TGI (NCI-H522 lung) [µM],TGI (BT-549 breast) [µM],GI50 (SF-295 CNS) [µM],GI50 (SK-MEL-2 melanoma) [µM],GI50 (LOX IMVI melanoma) [µM],GI50 (HOP-62 NSCLC) [µM],GI50 (NCI-H460 lung) [µM],GI50 (CCRF-CEM leukemia) [µM],GI50 (SN12C renal) [µM],GI50 (BT-549 breast) [µM],GI50 (NCI-H522 lung) [µM]
CN1CCN(c2c(O)c3c(c(O)c2Cl)C(=O)C=CC3=O)CC1,–,3.22,2.64,1.66,3.36,3.77,–,0.41,2.1,0.765,1.27,–,–,–,–,–,–,–,–,–
CCCN(CCC)c1c([N+](=O)[O-])cc(C(=O)N(C)C)cc1[N+](=O)[O-],> 100,> 100,> 100,–,–,> 100,> 100,> 100,> 100,> 100,–,–,–,–,–,–,–,–,–,–
OCCNc1nc2c(N3CCCC3)nc(N3CCNCC3)nc2nc1NCc1ccccc1,–,32.7,28.7,29.1,18.1,29.9,–,30,30.7,30.7,30.8,–,–,–,–,–,–,–,–,–
CN(C)/C=N/S(=O)(=O)c1nn2c(C=O)c(-c3cc4ccccc4oc3=O)nc2s1,–,> 100,40.1,15.4,> 59.2,> 88.1,–,7.33,24.5,3.09,33.1,–,–,–,–,–,–,–,–,–
C/C(=C/c1c(C)[nH]c(=O)[nH]c1=O)C(=O)O,> 1380,> 1380,> 1380,> 1380,> 1380,> 1380,> 1380,> 1380,> 1380,> 1380,–,–,> 1380,–,–,–,–,–,–,–
Cc1ccnc2sc3ccccc3c(=O)c12,–,> 100,> 100,> 100,> 100,> 100,–,> 100,> 100,99.2,> 100,–,–,–,–,–,–,–,–,–
CSc1nc(=O)c(C#N)c(-c2ccccc2)n1C1OC(COC(C)=O)C(OC(C)=O)C(OC(C)=O)C1OC(C)=O (stereo not given),–,> 100,> 100,> 100,> 100,> 100,–,> 100,> 100,> 100,> 100,–,–,–,–,–,–,–,–,–
Cc1ccc(NC(=O)CC(=O)N2N=C(c3ccccc3)C(N=Nc3ccc(S(=O)(=O)CCOS(=O)(=O)O)cc3)C2=O)cc1 (stereo not given),–,> 100,> 100,> 100,> 100,> 100,–,> 100,> 100,> 100,> 100,–,–,–,–,–,–,–,–,–
CC1(CO)C(=O)OC12CCCCC2 (stereo not given),> 100,> 100,> 100,> 100,> 100,–,> 100,> 100,> 100,> 100,–,–,–,–,–,–,–,–,–,–
CC(C)C(/C=C/c1ccccc1)=N\NC(=S)NN,–,> 100,> 100,> 100,> 100,> 100,–,> 89.9,> 100,> 89.3,> 100,–,–,–,–,–,–,–,–,–
Cc1ccc(Nc2ccc(Nc3ccc(C)cc3S(=O)(=O)O)c3c2C(=O)c2ccccc2C3=O)c(S(=O)(=O)O)c1,> 100,–,> 100,–,> 100,> 100,> 100,> 100,> 100,> 100,–,–,–,–,–,–,–,–,–,–
CN(/N=C/c1ccc(Cl)c(Cl)c1)C1=NCCN1,–,69,43.6,27.7,37.7,> 100,–,> 100,92.7,27.8,95.3,–,–,–,–,–,–,–,–,–
CC(C)(CN1CCCCC1)C(=O)/C=C/c1c(Cl)cccc1Cl,–,7.05,3.73,2.68,4.03,3.86,–,2.73,3.1,0.913,4.06,–,–,–,–,–,–,–,–,–
N#CI1OC(C(F)(F)F)(C(F)(F)F)c2ccccc21,–,> 100,30.5,43.3,> 100,72.5,–,> 100,68,27.3,40.9,–,–,–,–,–,–,–,–,–
NC(CNc1ccc(O)cc1)C(=O)O (stereo not given),> 100,> 100,> 100,> 100,> 100,> 100,> 100,> 100,> 100,> 100,–,–,–,–,–,–,–,–,–,–
